# Reference: US20230390250A1, “MODULATION OF GLUCAGON-LIKE PEPTIDE 1 AND USES THEREOF” (priority 2020, published 2023)
# “Also recorded” adds a separate entry of the source.
# Legend:
# [1] = test system: DPP4; assay: DPP4 activity in serum of C57BI/6J mice; format: in vivo
# Experimental: Mice were injected with 5 mg/kg Ki16425 or control (10% DMSO in isotonic saline), then injected 10 mins later with 50 mg/kg 1-18:1-LPA or saline (vehicle control), then euthanized 30 minutes later for serum collection and analysis.
# (§1) The experimental protocol was as follows: • 1. Mice were administered an LPAR antagonist drug, either by oral gavage (for SARI 00842 or AM966), or by i.p. injection (for Ki-16425) at the doses indicated in the table below. • 2. Control mice were administered only the vehicle (a 10% DMSO solution) given via the same route as the comparison drug was administered. • 3. Ten minutes later, mice were injected i.p. either with isotonic saline, or with 50 mg/kg 18:1-LPA. • 4. Thirty minutes later, mice were euthanized by cervical dyslocation, and blood was collected from the heart for preparation of serum that was stored at −80C until it was analyzed for total GLP-1 concentration by ELISA assay using a GLP-1 enzyme immunoassay kit.
# [2] = test system: DPP4; assay: DPP4 activity in GLUTag cells (fluorometric kit ab204722); format: cell-based, mouse
# Experimental: Briefly, GLUTag cells were grown to produce the recommended quantity needed for the assay according to the manufacturer's protocol (ab204722 Dipeptidyl peptidase IV Activity Assay Kit (Fluorometric)), and then the wells were treated in media containing charcoal-stripped FBS (10%), with either nothing (no treatment control), or vehicle control (0.05% DMSO), or 2.5 uM 18:1-LPA for 30 minutes, and then the inhibitors (as indicated in the graph of FIG. 17) were added to the vehicle wells and the 2.5 uM 18:1-LPA wells at 10 uM concentrations, as indicated on the graph (FIG. 17), for an additional 2 hours. Cells were then harvested according to the manufacturer's protocol, and lysed using reagents from the kit. Charcoal-stripped FBS was used to remove lipids, including LPA, from serum. Experiments were also carried out wherein the FBS was not stripped with charcoal, and the results were not different.
# According to the manufacturer, dipeptidyl peptidase IV (DPP4) Activity Assay Kit (Fluorometric) (ab204722) is an assay where DPP4 cleaves a substrate to release a quenched fluorescent group, AMC (7-Amino-4-Methyl Coumarin), which can be easily detected at Ex/Em=360/460 nm. This assay is rapid, simple, sensitive, and reliable, as well as, suitable for high throughput activity screening of DPP4. This kit detects DPP4 activity as low as 3 ρU per well.
# [3] = test system: GLUTag cells; assay: GLP-1 secretion from cultured GLUTag cells treated with LPA and/or LPAR antagonist; format: cell-based, mouse; conditions: 10 μM antagonist plus 2.5 μM LPA
# Experimental: We have grown GLUTag cells in culture to test effects of various LPA species and the LPAR 1/2/3 inhibitor Ki-16425. GLUTag cells are a well characterized L-cell line derived from a mouse intestinal tumour, which have been widely used to study the regulation of GLP-1. Briefly, GLUTag cells were grown until 80-90% confluent. Complete medium, containing fetal bovine serum, was replaced with medium containing charcoal[…] dextran treated serum, which removes lipids and hormones that could interfere with testing. […] This indicates a direct inhibitory effect of LPA at physiologically relevant levels on GLP-1 secretion by L-cells, and the ability of a commercially available LPAR antagonist to prevent this.
# Experimental Protocol. Briefly, GLUTag cells were grown until 70-80% confluent. Complete medium (low glucose DMEM), containing fetal bovine serum, was replaced with medium containing charcoal-dextran treated serum, which removes lipids and hormones that could interfere with testing. Cells were then treated with medium containing either DMSO as vehicle control (0.1% v/v), 2.5 μM LPA, 10 μM LPAR antagonist, or a combination of the LPA species and inhibitors. For cells treated with both LPA plus LPAR inhibitor: cells were pre-treated with LPA for 30 minutes and then 10 uM LPAR inhibitor was added to the respective wells for a further 2 hours. For cells treated with LPA only, or vehicle only, the total treatment time was 2.5 hours. For cells treated with antagonist only, the treatment time was 2 hours.
# [4] = test system: GLP-1; assay: Circulating GLP-1 in mice injected with LPA, with or without LPAR antagonist pre-treatment; format: in vivo; conditions: for prevention of LPA-induced decrease in plasma GLP-1: 5 mg/kg i.p. 10 min before 50 mg/kg 1-oleoyl-2-hydroxy-LPA, n=3 (Example 3, FIG. 4)
# Experimental: We injected mice i.p. with vehicle (10% DMSO in isotonic saline) or 50 mg/kg of 1-oleoyl-2-hydroxy-LPA. Half of the mice injected with LPA were pre-injected with 5 mg/kg Ki-16425 10 minutes prior to receiving LPA. Thirty minutes later, samples of blood were taken by cardiac puncture, and circulating active GLP-1 levels in plasma were analysed by enzyme linked immunosorbent assay.
# as §1, with “(for BMS986020,” for “(for”, “SARI 00842, AM966, AM095,” for “SARI 00842”, “or H2L51863030),” for “or AM966),”, “(for Ki-16425, and LPA2-antagonistl)” for “(for Ki-16425)”, “mg/kg LPA.” for “mg/kg 18:1-LPA.”
# [5] = target: LPAR1 (Homo sapiens, UniProt Q92633); conditions: cited from earlier work
# [6] = target: LPAR2 (Homo sapiens, UniProt Q9HBW0); conditions: cited from earlier work
# [7] = test system: GLP-1; assay: Blood GLP-1 in RT-SAKO mice (elevated endogenous LPA) treated with Ki-16425; format: in vivo; conditions: 30 minutes after injection
# Description: Our laboratory has created a new genetic mouse model to study the isolated effects of obesity on kidney health. This model was not created to test LPA metabolism or to study GLP-1 regulation, but we have made important discoveries on these topics. We have made mice that lack the enzyme adipose triglyceride lipase (ATGL) in renal tubule cells, and have named these mice renal tubule-specific adipose triglyceride lipase knockout (or RT-SAKO) mice. These mice develop fatty kidneys, and as a side effect of changes in kidney cell metabolism, their kidneys make more LPA. As a result, RT-SAKO mice develop elevations in blood lysophosphatidic acid levels by 16-18 weeks of age (FIG. 5, left panel). They also have low circulating levels of GLP-1 (FIG. 5, right panel).
# [8] = test system: insulin secretion; conditions: prior study, Rancoule et al. 2013, cited from earlier work
# [9] = target: T1, LPAR3 (Homo sapiens, UniProt Q9UBY5); conditions: cited from earlier work
# T1 sequence (Q9UBY5 1-353): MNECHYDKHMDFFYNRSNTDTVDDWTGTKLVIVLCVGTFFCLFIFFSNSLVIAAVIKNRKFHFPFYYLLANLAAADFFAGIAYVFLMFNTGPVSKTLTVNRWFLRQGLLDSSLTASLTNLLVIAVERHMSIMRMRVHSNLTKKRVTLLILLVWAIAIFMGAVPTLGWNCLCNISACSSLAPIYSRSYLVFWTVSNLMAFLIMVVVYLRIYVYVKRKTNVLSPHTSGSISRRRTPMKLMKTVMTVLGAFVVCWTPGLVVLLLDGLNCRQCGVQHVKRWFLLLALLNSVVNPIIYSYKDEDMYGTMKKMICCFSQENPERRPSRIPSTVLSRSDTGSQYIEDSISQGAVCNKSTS
# [10] = Glucose intolerance and insulin secretion in fatty-kidney (RT-SAKO) mice; format: in vivo
# Chain of LPAR2 (Q9HBW0 whole entry, species assumed): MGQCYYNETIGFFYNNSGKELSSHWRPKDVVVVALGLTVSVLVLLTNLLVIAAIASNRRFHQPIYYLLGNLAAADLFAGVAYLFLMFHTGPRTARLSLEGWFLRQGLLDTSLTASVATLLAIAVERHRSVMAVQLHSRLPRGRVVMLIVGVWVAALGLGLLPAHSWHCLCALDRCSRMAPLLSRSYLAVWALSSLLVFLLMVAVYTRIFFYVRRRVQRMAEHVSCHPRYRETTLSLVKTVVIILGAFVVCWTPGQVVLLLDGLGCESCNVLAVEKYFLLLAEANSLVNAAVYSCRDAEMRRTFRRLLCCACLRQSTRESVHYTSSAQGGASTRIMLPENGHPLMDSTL
# Chain of LPAR1 (Q92633 whole entry, species assumed): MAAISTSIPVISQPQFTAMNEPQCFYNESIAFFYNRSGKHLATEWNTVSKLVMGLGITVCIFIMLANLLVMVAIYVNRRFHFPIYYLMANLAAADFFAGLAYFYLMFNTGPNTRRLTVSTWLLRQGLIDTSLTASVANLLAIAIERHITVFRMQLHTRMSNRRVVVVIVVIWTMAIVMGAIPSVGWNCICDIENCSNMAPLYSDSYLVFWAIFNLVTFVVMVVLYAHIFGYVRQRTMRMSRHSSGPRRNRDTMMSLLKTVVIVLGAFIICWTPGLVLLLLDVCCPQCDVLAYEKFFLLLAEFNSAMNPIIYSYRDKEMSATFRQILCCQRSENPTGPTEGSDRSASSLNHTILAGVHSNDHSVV
structure (smiles),measurement,setting,value
Cc1noc(-c2ccc(CSCCC(=O)O)cc2)c1NC(=O)OC(C)c1ccccc1Cl (stereo not drawn) [Ki16425],effect of antagonist on DPP4 activity in mouse serum,[1]; 5 mg/kg i.p.,did not significantly affect; also recorded: lack of effect; also recorded: not significantly affected
same,effect of 18:1-LPA combined with antagonist on DPP4 activity in mouse serum,[1]; antagonist 5 mg/kg i.p. then 50 mg/kg 18:1-LPA,did not affect
same,effect of 18:1-LPA combined with LPAR antagonist on DPP4 activity in GLUTag cells,"[2]; 2.5 uM 18:1-LPA 30 minutes, then 10 uM antagonist 2 hours",did not significantly affect
same,effect of LPAR antagonist alone on DPP4 activity in GLUTag cells,"[2]; 10 uM antagonist, 2 hours",did not significantly affect
same,rescue of LPA-inhibited GLP-1 secretion by LPAR antagonist,[3],larger effect than the others; also recorded: prevented that decrease
same,rescue of LPA-inhibited GLP-1 secretion by LPAR antagonist,[3]; listed as Ki-16425,completely prevents this decrease; also recorded: restored
same,prevention of LPA-induced decrease in plasma GLP-1,[4],significantly abrogates
same,prevention of LPA-induced decrease in plasma GLP-1,[4]; listed as Ki-16425,partially restored; also recorded: partially prevented; also recorded: significantly prevented
same,rescue of the fall in blood GLP-1 levels caused by LPA,"[4]; antagonist 5 mg/kg i.p. 10 min before 50 mg/kg 18:1-LPA i.p., serum at 30 min (Examples 6, 8)",completely abrogated; also recorded: Complete rescues; also recorded: restored to normal levels
same,blood GLP-1 with antagonist alone versus vehicles,"[4]; antagonist 5 mg/kg i.p., no LPA",indistinguishable from mice treated only with the vehicles
same,Ki,[5],340 nM
same,Ki,[6],6500 nM
same,restoration of blood GLP-1 levels in RT-SAKO mice,[7],restores GLP-1 levels; also recorded: come back up to close to normal
same,beta-islet cell number,[8]; mice on a high-fat diet,increased
same,prevention of LPA-impaired insulin secretion,[8],prevented
same,Ki,[9],930 nM
same,level at which LPAR3 is antagonized,[9],low micromolar levels
same,glucose intolerance and impaired insulin secretion,[10],rescues
